In PMC8262977, “A Dual-Specificity Inhibitor Targets Polyphosphate Kinase 1 and 2 Enzymes To Attenuate Virulence of Pseudomonas aeruginosa” (mBio, 2021):

What was measured:
[1] = molecular target: T1, P. aeruginosa PPK2A (Pseudomonas aeruginosa, UniProt Q9I6Z1); assay: PPK2A ADP phosphorylation by polyP (ATP synthesis), toluidine blue detection; format: biochemical; details: ATP synthesis from ADP and polyP; 275 nM enzyme; read-out: IC50 PPK2A
T1 construct: residues P9 to P289; MBP (N, cleaved yes); His tag (N, cleaved yes); made in house; host or cells: E. coli BL21(DE3)
Protocol: (§1) All IC50 and kinetic assay mixtures contained equimolar amounts (275 nM) of PPK to ensure valid comparison between different enzymes. PolyP synthesis activity (for PPK1 and PPK2B) was assayed using the reaction buffer and conditions described above. ATP concentration was varied as indicated for kinetic experiments. Curves were fit using GraphPad Prism V9.
(§2) Nucleotide phosphorylation activity of PPK2 enzymes was assayed in buffer containing 50 mM Tris-HCl, pH 7.5, 10 mM (NH4)2SO4, 10 mM MgCl2, 5 mM polyP45 (Sigma; in terms of individual Pi monomers), and nucleotide (ADP or AMP) at 5 mM for IC50 reactions or as indicated for kinetic experiments. Enzyme was added to a final concentration of 275 nM in 100-μl reaction volumes. One-hundred-microliter reaction mixtures were incubated at 37°C for 30 min, and then 5-μl aliquots were withdrawn and added to 1,000 μl of 6-mg/liter toluidine blue dissolved in 40 mM acetic acid to quench the reaction and quantify the polyP that remained. The A630/530 nm ratio was then recorded, and the values obtained were corrected by subtracting the corresponding blanks (all ingredients except enzyme). The amount of polyP consumed was calculated by subtracting the amount present after reaction from that present in the initial reaction mix, as calculated via a standard curve. Each monomer of Pi consumed from polyP equates to one nucleoside phosphorylated. Curves were fit using GraphPad Prism V9.

[2] = system: P. aeruginosa PA14; assay: Bacterial polyP accumulation assay after phosphate starvation; format: cell-based, Pseudomonas aeruginosa
Protocol: P. aeruginosa polyP levels following nutrient deprivation in morpholinepropanesulfonic acid (MOPS) minimal medium were assessed as described previously ([8]), with slight variations. Briefly, overnight cultures were grown in 5 ml LB in the presence of inhibitor or DMSO as indicated. Cultures were centrifuged for 10 min at 3,900 rpm to pellet cells, which were then resuspended in MOPS minimal medium containing 100 μM phosphate and the indicated quantity of inhibitor or DMSO. Cultures were incubated at 37°C for 2 h to allow polyP accumulation and then subsequently pelleted, resuspended in guanidinium thiocyanate (GITC) lysis buffer, and boiled at 95°C for 5 min. PolyP was purified via silica spin column as described previously ([8]), with the exception of using 50 nM PPK2A instead of E. coli PPK to convert polyP to ATP. An Invitrogen ATP determination kit (ThermoFisher) was used per the manufacturer’s instructions for ATP quantification. Luminescence was recorded on a SpectraMax iD3 microplate reader (Molecular Devices).

[3] = system: P. aeruginosa PA14; assay: Biofilm assay, crystal violet staining; format: cell-based, Pseudomonas aeruginosa
Protocol: P. aeruginosa biofilms were quantified as described previously ([54]). Briefly, M63 medium supplemented with 1 mM MgSO4 and 0.4% arginine as the sole carbon source was colony inoculated with PA14. Biofilms were allowed to form in 96-well tissue culture plates (U-bottom; Sarstedt) at 37°C for 16 h. Wells were washed twice with sterile water. Biofilm rings were stained with 0.1% crystal violet, washed twice with water, and then solubilized in 30% acetic acid to record absorbance at 570 nm.

[4] = molecular target: T2, P. aeruginosa PPK2C (Pseudomonas aeruginosa, UniProt Q9HYF1); assay: PPK2C AMP phosphorylation by polyP (ADP synthesis), toluidine blue detection; format: biochemical; details: ADP synthesis from AMP and polyP; 275 nM enzyme; read-out: IC50 PPK2C
T2 construct: MBP (N, cleaved yes); His tag (N, cleaved yes); made in house; host or cells: E. coli BL21(DE3)
Protocol: as §1, §2

[5] = system: human protein kinases; assay: Counterscreen against human protein kinases, [33P]ATP filter-binding assay; format: biochemical; details: 10 μM gallein, array of divergent human kinases
Protocol: Toxicity is always a major concern with kinase inhibitors, even though the absence of PPK homologues in mammals makes these enzymes particularly attractive therapeutic targets ([1], [11]). Cytotoxicity of the inhibitors was therefore assessed in cultured human embryonic kidney (HEK) […] cells via standard trypan blue viability assays ([36]). While the initial hit RT1 reduced cell viability by ∼60%, gallein was noncytotoxic at concentrations up to 100 μM (Fig. 6A). Gallein was also counterscreened against an array of divergent human kinases available at the International Centre for Kinase Profiling (University of Dundee), as described previously ([37]).
FIG 6 Gallein avoids off-target toxicity. (A) HEK cell cytotoxicity assay. Viability determined via trypan blue staining following 48 h of incubation with compounds. (B) Counterscreen for inhibition of human protein kinases by 10 μM gallein via radioactive ([^33P]ATP) filter-binding assay performed by the University of Dundee MRC PPU ([26]). (A) ns, P > 0.05; *, P < 0.05 (one-way ANOVA, Tukey’s multiple-comparison test, n = 3).

[6] = mice, 5 to 10 mg/kg of body weight daily for up to 8 weeks; cited from earlier work
[7] = system: P. aeruginosa PA14; assay: Bacterial growth kinetics (OD600); format: cell-based, Pseudomonas aeruginosa
Excerpt: FIG 3 Gallein phenocopies ppk deletion to attenuate P. aeruginosa swimming motility. (A) Representative image of swimming motility. (B) Quantification of the effects of gallein treatment and ppk gene deletion on swimming motility. (C) PA14 growth kinetics in the presence and absence of gallein in lysogeny broth (equivalent in composition to swim plates, minus the agar). ns, P > 0.05; *, P < 0.05; **, P < 0.01; ***, P < 0.001 (two-way ANOVA, Tukey’s multiple-comparison test, n = 3). All data points are the average from triplicates; error bars are ±standard deviation.
Supplementary file : FIG S4 Growth curves of P. aeruginosa WT and ΔpolyP in M63 biofilm medium (A) and liquid killing C. elegans assay medium (B). Gallein, or an equivalent volume of DMSO, was added to a 100 μM final concentration. OD600 monitored in triplicate cultures grown in 96-well plates at 37°C following colony inoculation. Error bars ± standard deviation. Download FIG S4, TIF file, 2.5 MB.

[8] = WT: DMSO control vs 100 µM gallein
[9] = Δppk1: DMSO control vs 100 µM gallein

T2 sequence (Q9HYF1 whole entry): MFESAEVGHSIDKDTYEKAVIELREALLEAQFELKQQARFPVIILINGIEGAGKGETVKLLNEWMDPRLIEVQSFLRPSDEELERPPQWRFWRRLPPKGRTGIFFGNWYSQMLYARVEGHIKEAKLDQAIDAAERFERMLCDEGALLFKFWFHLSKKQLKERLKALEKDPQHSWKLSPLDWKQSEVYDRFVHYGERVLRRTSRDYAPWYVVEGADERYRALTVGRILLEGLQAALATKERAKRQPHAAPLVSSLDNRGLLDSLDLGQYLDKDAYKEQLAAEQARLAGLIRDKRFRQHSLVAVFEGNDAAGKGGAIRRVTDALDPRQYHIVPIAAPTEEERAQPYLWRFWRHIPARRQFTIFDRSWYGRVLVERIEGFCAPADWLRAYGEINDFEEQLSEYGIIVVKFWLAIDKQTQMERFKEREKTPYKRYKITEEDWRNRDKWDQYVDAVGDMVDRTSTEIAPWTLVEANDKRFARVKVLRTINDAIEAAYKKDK
T1 sequence (Q9I6Z1 68-348): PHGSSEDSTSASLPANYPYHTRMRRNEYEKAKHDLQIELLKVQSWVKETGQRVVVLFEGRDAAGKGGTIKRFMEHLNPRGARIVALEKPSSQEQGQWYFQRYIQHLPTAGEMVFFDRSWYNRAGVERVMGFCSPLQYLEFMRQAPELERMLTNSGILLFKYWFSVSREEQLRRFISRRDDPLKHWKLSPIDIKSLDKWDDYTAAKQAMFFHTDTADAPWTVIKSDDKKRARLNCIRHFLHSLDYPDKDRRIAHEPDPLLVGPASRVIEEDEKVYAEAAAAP

O=C1OC2(c3ccccc31)c1ccc(O)c(O)c1Oc1c2ccc(O)c1O [RT4 (gallein), gallein]
IC50 [1]: 16 ± 3 µM
polyP levels ([2]; WT, phosphate starvation medium, nonbactericidal amounts): reduced wild-type (WT) polyP levels in a dose-dependent manner
Bacterial polyP accumulation, Mean Diff. [2, 8]: 68.65
Bacterial polyP accumulation, Mean Diff. ([2]; Δppk1, Δppk2A, Δppk2B, Δppk2C: DMSO control vs 100 µM gallein): 2.148
Bacterial polyP accumulation, Mean Diff. [2, 9]: 29.11
polyP levels ([2]; Δppk1 strain): significantly reduced polyP levels
polyP levels ([2]; Δppk1 Δppk2A Δppk2B Δppk2C (ΔpolyP) strain): had no effect
polyP levels ([2]; Δppk2A Δppk2B Δppk2C strain): reduced polyP in this strain to a similar extent as that in the WT
Bacterial polyP accumulation, Mean Diff. ([2]; Δppk2A, Δppk2B, Δppk2C: DMSO control vs 100 µM gallein): 74.9
Biofilm formation, Mean Diff. [3, 8]: 0.1666
biofilm formation ([3]; WT, reduction dose dependent): reduced biofilm formation
biofilm formation ([3]; ΔpolyP strain): no significant effect
Biofilm formation, Mean Diff. ([3]; Δppk1, 2a, 2b, 2c: DMSO control vs 100 µM gallein): 0.005375
Biofilm formation, Mean Diff. [3, 9]: 0.08825
biofilm formation ([3]; Δppk1 strain): further decreased biofilm formation
Biofilm formation, Mean Diff. ([3]; Δppk2a, 2b, 2c: DMSO control vs 100 µM gallein): 0.08488
biofilm formation ([3]; Δppk2 strain): further decreased biofilm formation
IC50 [4]: 165 ± 5 µM
loss of activity of human kinases [5]: ≤ 25%
adverse effects [6]: no adverse effects
growth kinetics ([7]; LK conditions, 100 μM): near-WT growth kinetics
planktonic growth rate ([7]; biofilm assay conditions (M63 medium), 100 μM): did not affect the planktonic growth rate
bacterial growth kinetics ([7]; lysogeny broth): did not affect bacterial growth kinetics
